{
  "source": "patent EP2601963B1",
  "about": "“N-ISOVALEROYL-L-GLUTAMYL-L-TRYPTOPHAN AS AN AGENT INHIBITING THE FORMATION OF ULCERS IN THE STOMACH AND THE DUODENUM” (Obshestvo S Ogranichennoj Otvetstvennostju \"CytoNIR\", priority 2010, dated 2015)",
  "key": {"[1]": {"tested_on": "indomethacin-induced gastric ulcers", "assay": "Indomethacin-induced ulcer model, preventive treatment: gastric lesions", "assay_type": "in vivo, male Wistar rats", "set-up": "key to GA1 (gastroprotective activity calculated for number of lesions): GA1 = Pauls Index of control / Pauls Index of treated group; key to GA2 (gastroprotective activity calculated for lesion size): GA2 = Ulcer Index of control / Ulcer Index of treated group; key to Ulcer Index: UI = mean lesion area in group x % animals with lesions / 100; Small round Size / Total Size / Large round Size / Linear Size / Lesion Size: unit not given here", "conditions": "for # Lesions / % Animals with Ulcers / GA1 (gastroprotective activity calculated for number of lesions) / GA2 (gastroprotective activity calculated for lesion size) / Lesion Size / PI / Ulcer Index / Large round Amount / Large round Size / Linear Amount / Linear Size / Small round Amount / Small round Size / Total Amount / Total Size: preventive; for Large round Amount / Large round Size / Linear Amount / Linear Size / Small round Amount / Small round Size / Total Amount / Total Size: indomethacin-induced ulcers", "procedure": "(§1) All studies were conducted on male Wistar rats weighing 220 ± 20 g, obtained from Rappolovo nursery (Leningrad oblast). For 14 days prior to the experiment, the animals were held in isolation. The animals were handled in accordance with the European Convention for the Protection of Vertebrate Animals used for Experimental and Other Scientific Purposes (Strasburg, 1986). The animals were held in standard plastic cages and fed a standard diet of PK120-3 (granulated feed in accordance with order # 1179 M3 USSR 10/10/1983) with a free access to water.\n(§2) Animals' body weight changes were monitored throughout the experiment. The experimental animals were then sacrificed by decapitation, and their blood was collected in test tubes. The stomachs were extracted, dissected along the major curve, rinsed with cold saline solution, and the mucosa was carefully examined through a magnifying glass under bright lights. The mucosa was inspected for color, the presence of hyperemia and its intensity. The number of lesions, which were differentiated into small round (less than 1 mm), linear, and large lesions (more than 1mm) and the size of the area they covered were calculated. The average number of lesions per one animal in a group and the percentage of animals with ulcers were also calculated. Pauls Index (PI) was used as an integral indicator of the number of lesions and was calculated as follows: • PI = average number of lesions in a group x % of animals with lesions/100 [Pauls F., Wick A.M.,Mac. Key E.M. et al. An assau method for anti ulcer substances // Gastroenterology.- 1947. #8.- p.p.774 - 782]. Ulcer index UI was calculated as: UI = average lesion area size in the group x % of animals with lesions/100; gastroprotective activity GA1 was calculated as: GA1 = PI of the control group/PI of the experimental group, GA2 = UI of the control group/UI of the experimental group.\n(§3) Five groups of 10 animals per group were prepared for the experiment as described in Example 1.\nIn each series of experiments, the animals were divided into experimental and control groups at 10 animals per group. The animals in the experimental group were orally administered the proposed medication or a comparator drug, and the control animals were given distilled water in the same amount. • control group received distilled water per os; • experimental group 1 received 0.1 mkg/kg N-isovaleroyl-L-glutamyl-L-tryptophan; • experimental group 2 received 10 mkg/kg N-isovaleroyl-L-glutamyl-L-tryptophan; • experimental group 3 received 200 mkg/kg of the comparator drug Sucralfate.\nThe efficacy of the course of preventive treatment with the claimed composition was evaluated 24 hrs. post indomethacin administration. The study was conducted as in Example 1."}, "[2]": {"tested_on": "indomethacin-induced ulcers", "assay": "Indomethacin-induced ulcer model, therapeutic treatment: healing of gastric lesions", "assay_type": "in vivo, male Wistar rats", "set-up": "key to gastroprotective activity (first value, GA1) / GA1 (gastroprotective activity calculated for number of lesions): GA1 = PI of control group / PI of experimental group; key to gastroprotective activity (second value, GA2): GA2 = UI of control group / UI of experimental group; key to Ulcer Index: UI = average lesion area in group × % animals with lesions / 100; Lesion Size: unit not given here", "procedure": "as §1, §2, §3\nIn each series of the experiments, the animals were divided into experimental and control groups at 10 animals per group. The proposed medication or a comparator drug were orally administered to the animals in the experimental group, and the control animals were given distilled water in the same amount. • control group received distilled water per os; • experimental group 1 received 0.1 mkg/kg isovaleroyl glutamyl tryptophan; • experimental group 2 received 10 mkg/kg isovaleroyl glutamyl tryptophan; • experimental group 3 received 200 mkg/kg of the comparator drug Sucralfate.\n2 ml/kg of the ulcerogenic dose of indomethacin equal to 30 mg/kg was administered intraperitoneally. The treatment started 24 hrs. post indomethacin administration and continued for 5 days. The animals in the experimental groups received N-isovaleroyl-L-glutamyl-L-tryptophan or the comparator drug Sucralfate, and the control group received distilled water."}, "[3]": {"conditions": "0.1 mkg/kg + Indomethacin 20 mg/kg"}, "[4]": {"conditions": "10 mkg/kg + Indomethacin 20 mg/kg"}, "[5]": {"conditions": "0.1 mkg/kg, treatment after Indomethacin"}, "[6]": {"conditions": "Indomethacin 30 mg/kg + 10 mkg/kg, treatment 5 days"}},
  "data": [
    {"substance": "N-isovaleroyl-L-glutamyl-L-tryptophan [VGT preparation]", "values": [
      {"measurement": "# Lesions", "setting": "[1]; [3]", "result": "7.5 ± 1.0"},
      {"measurement": "% Animals with Ulcers", "setting": "[1]; [3]", "result": 100, "unit": "%"},
      {"measurement": "GA1 (gastroprotective activity calculated for number of lesions)", "setting": "[1]; [3]", "result": 2.84},
      {"measurement": "GA2 (gastroprotective activity calculated for lesion size)", "setting": "[1]; [3]", "result": 5.51},
      {"measurement": "Lesion Size", "setting": "[1]; [3]", "result": "4.1 ± 0.9"},
      {"measurement": "PI", "setting": "[1]; [3]", "result": 7.5},
      {"measurement": "Ulcer Index", "setting": "[1]; [3]", "result": 4.1},
      {"measurement": "Large round Amount", "setting": "[1]; 0.1 mkg/kg", "result": "2.7 ± 0.5"},
      {"measurement": "Large round Size", "setting": "[1]; 0.1 mkg/kg", "result": "1.4 ± 0.3"},
      {"measurement": "Linear Amount", "setting": "[1]; 0.1 mkg/kg", "result": "2.0 ± 0.7"},
      {"measurement": "Linear Size", "setting": "[1]; 0.1 mkg/kg", "result": "1.9 ± 0.7"},
      {"measurement": "Small round Amount", "setting": "[1]; 0.1 mkg/kg", "result": "2.8 ± 0.7"},
      {"measurement": "Small round Size", "setting": "[1]; 0.1 mkg/kg", "result": "0.8 ± 0.2"},
      {"measurement": "Total Amount", "setting": "[1]; 0.1 mkg/kg", "result": "7.5 ± 1.0"},
      {"measurement": "Total Size", "setting": "[1]; 0.1 mkg/kg", "result": "4.1 ± 0.9"},
      {"measurement": "# Lesions", "setting": "[1]; [4]", "result": "8.3 ± 1.7"},
      {"measurement": "% Animals with Ulcers", "setting": "[1]; [4]", "result": 100, "unit": "%"},
      {"measurement": "GA1 (gastroprotective activity calculated for number of lesions)", "setting": "[1]; [4]", "result": 2.57},
      {"measurement": "GA2 (gastroprotective activity calculated for lesion size)", "setting": "[1]; [4]", "result": 5.51},
      {"measurement": "Lesion Size", "setting": "[1]; [4]", "result": "4.1 ± 1.6"},
      {"measurement": "PI", "setting": "[1]; [4]", "result": 8.3},
      {"measurement": "Ulcer Index", "setting": "[1]; [4]", "result": 4.1},
      {"measurement": "Large round Amount", "setting": "[1]; 10.0 mkg/kg", "result": "3.5 ± 0.9"},
      {"measurement": "Large round Size", "setting": "[1]; 10.0 mkg/kg", "result": "1.7 ± 0.6"},
      {"measurement": "Linear Amount", "setting": "[1]; 10.0 mkg/kg", "result": "1.2 ± 0.5"},
      {"measurement": "Linear Size", "setting": "[1]; 10.0 mkg/kg", "result": "1.8 ± 1.1"},
      {"measurement": "Small round Amount", "setting": "[1]; 10.0 mkg/kg", "result": "3.6 ± 1.3"},
      {"measurement": "Small round Size", "setting": "[1]; 10.0 mkg/kg", "result": "0.5 ± 0.1"},
      {"measurement": "Total Amount", "setting": "[1]; 10.0 mkg/kg", "result": "8.3 ± 1.7"},
      {"measurement": "Total Size", "setting": "[1]; 10.0 mkg/kg", "result": "4.1 ± 1.6"},
      {"measurement": "size of the lesions in the gastric mucosa reduced", "setting": "[1]; preventive treatment, indomethacin-induced lesions", "result": 5, "unit": "times"},
      {"measurement": "gastroprotective activity (first value, GA1)", "setting": "[2]; [5]", "result": 2},
      {"measurement": "gastroprotective activity (second value, GA2)", "setting": "[2]; [5]", "result": 2.6},
      {"measurement": "# Lesions", "setting": "[2]; [6]", "result": "6.2 ± 1.3"},
      {"measurement": "% Animals with Ulcers", "setting": "[2]; [6]", "result": 100, "unit": "%"},
      {"measurement": "GA1 (gastroprotective activity calculated for number of lesions)", "setting": "[2]; [6]", "result": 1.4},
      {"measurement": "Lesion Size", "setting": "[2]; [6]", "result": "23.6 ± 6.1"},
      {"measurement": "PI", "setting": "[2]; [6]", "result": 6.2},
      {"measurement": "Ulcer Index", "setting": "[2]; [6]", "result": 23.6}
    ]}
  ]
}
